According to patent publication US20260219274A1, “POLYOL SWEETNERS AND CARDIOVASCULAR AND THROMBOTIC EVENT RISK” (THE CLEVELAND CLINIC FOUNDATION, priority 2023, published 2026):

How the values were obtained:
[1] = tested on: stable subjects undergoing elective diagnostic cardiac evaluation (Validation / US cohort); parameters: species or system human; settings: in vivo
Description: Our second clinical study employed an independent non-overlapping Validation Cohort, where we employed quantitative stable isotope dilution liquid chromatography tandem mass spectrometry (LC-MS/MS) to determine xylitol levels in serum samples from 2,149 patients (non-overlapping from GeneBank at the Cleveland Clinic; clinicaltrials.gov identifier: NCT0059020).^35-36
In both, the Discovery and Validation Cohorts, Major Adverse Cardiovascular Events (MACE) were defined as death, nonfatal myocardial infarction, or nonfatal cerebrovascular accident (stroke) during follow-up. Adjudicated long term survival data were collected through medical records review and Social Security Death Index query. Cardiovascular disease (CVD) was indicated as presence of peripheral artery disease or coronary artery disease, indicated as any clinical history of myocardial infarction, coronary revascularization (including percutaneous coronary intervention, coronary artery bypass surgery), or angiographic evidence of significant stenosis (≥50%) in 1 or more major coronary arteries. Estimated glomerular filtration rate (eGFR) in both cohorts was calculated based on the recent Chronic Kidney Disease Epidemiology Collaboration 2021 CKD-EPI Creatinine equation.^37 Platelet-related hematology analyses were performed with an Advia 120 hematology analyzer (Siemens, New York, NY).^38 Use of anti-platelet agents (=1556) was defined as either aspirin or a P2Y12 agent or both. All observational studies in this example are reported in compliance with the STrengthening the Reporting of Observational studies in Epidemiology (STROBE)-Statement.^39 Information on gender of study participants of the Discovery and Validation Cohorts is reported in Table 1-3.
Stable-isotope-dilution LC-MS/MS was developed to specifically quantify xylitol in human and mouse plasma, urine and feces (fecal pellets were dissolved in water and supernatant subjected to LC-MS/MS). Accuracy and precision of the method to quantify xylitol (separated from its structural isomers arabitol and rabitol) were assessed by a standard addition method 4 of pure synthetic standard into three different plasma pools. Accuracy was 2.4-2.8%, and intra- and inter-day coefficients of variation (CVs), were 1.2-8.9% and 10.9-11.5%, respectively. Urine creatinine was similarly analyzed by stable-isotope-dilution LC-MS/MS using D3-creatinine as internal standard as previously described.^47 Erythritol was quantified by stable-isotope-dilution LC-MS/MS as previously described.^19 Details for all assays can be found in the additional methods.
Continuous variables are summarized as median (interquartile range [IQR]), and categorical variables are presented as %. […]

[2] = tested on: human platelet-rich plasma; assay: Aggregometry in platelet-rich plasma; format: cell-based; settings: for platelet responsiveness / aggregation with varying polyol level: fixed submaximal ADP or TRAP6, varying pre-incubation levels
Description: Aggregometry in platelet rich plasma (PRP) was performed as previously described^40 and outlined in supplemental methods.
Platelet rich plasma (PRP) was isolated as previously described.^5 Whole blood was drawn from healthy donors and anticoagulated with sodium citrate (0.109 M). PRP was prepared by centrifuging at 100×g for 10 min at 22° C. Platelet poor plasma (PPP) was obtained by additional centrifugation of the remaining blood samples at 11,000×g for 2 min. Next, platelets were counted with a hemocytometer and the platelet concentration adjusted to 2×10^8/mL using PPP. PRPs were then pre-incubated with xylitol (Catalogue #X3375-5G, Sigma, St. Louis, MO, USA) at indicated concentrations or vehicle (saline) for 30 min at 22° C. After exposure to xylitol or vehicle, PRPs were maintained in suspension with constant stirring (600 rpm) at 37° C. Subsequently, platelet aggregation was induced by adding the agonists ADP (up to 5 μM, Catalogue #384, Chronolog, Havertown, PA, US) or TRAP6 (TFLLR-NH2, up to 10 μM, Catalogue #464, Tocris, Bristol, UK). For all platelet aggregometry experiments, blood was always processed within approx. 30 minutes of collection, and isolated platelets were used within 120 minutes of isolation. When used, pairs of vehicle vs. xylitol incubated PRP were always incubated and analyzed together (beginning, middle, end of platelet prep use) and after 120 minutes post isolation, PRPs were not used anymore.
Platelet rich plasma (PRP) and platelet poor plasma (PPP) was prepared as previously described with sodium citrate (0.109 M) as anticoagulant^51. Platelets were counted and concentrations adjusted to 2×10^8/mL with PPP. PRPs were pre-incubated with erythritol (Catalogue #E7500, Sigma, St. Louis, MO, USA), glucose (Catalogue #G7021, Sigma, St. Louis, MO, USA) or 1,5-AHG (Catalogue #29874, Cayman Chemical, Ann Arbor, Michigan, USA) (at indicated concentrations) or vehicle (saline) for 30 min at 22° C. After pre-incubation PRPs were maintained in suspension with constant stirring (600 rpm) at 37° C. and platelet aggregation was initiated using ADP (up to 5 μM, Catalogue #384, Chronolog, Havertown, PA, US) or TRAP6 (TFLLR-NH2, up to […], Catalogue #464, Tocris, Bristol, UK).

| SMILES | HR [95% CI] incident event risk [1] | HR with 95% CI [1] | adjusted HR [95% CI] incident MACE [1] | stimulus-dependent platelet aggregation response to ADP and TRAP6 ([2]; PRP incubated with the polyol versus vehicle, submaximal agonist) | platelet responsiveness / aggregation with varying polyol level [2] | erythritol concentration eliciting significant increase in ADP-stimulated aggregometry responses ([2]; threshold, FIG. 27) | erythritol concentration eliciting significant increase in thrombin-stimulated aggregometry responses ([2]; threshold, FIG. 27) | HR [95% CI] for incident (3 year) MACE [1] | stimulus-dependent platelet activation and aggregation ([2]; xylitol 30 μM with sub-maximal ADP or TRAP6) | effect on PRP without agonist ([2]; xylitol 30 μM, brief incubation) |
| --- | --- | --- | --- | --- | --- | --- | --- | --- | --- | --- |
| OC[C@@H](O)[C@@H](O)CO [erythritol] | 2.64 [1.79-3.90] | 1.21 (1.12-1.31) | 1.80 [1.18-2.77] | significant increase | dose-dependently enhanced | 18 µM | 18 µM |  |  |  |
| OC[C@@H](O)[C@H](O)[C@@H](O)CO [xylitol] |  |  |  |  | dose-dependent enhancement |  |  | 2.31 [1.52-3.52] | marked enhancement | no effect |
